Assay results as given in the supplement of paper PMC11451515.

System: P12-Ichikawa
Assay: cell viability relative to DMSO control; higher = less cytotoxic
Settings: 48 h
Outline: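 NOMO1, SEM and P12-Ichikawa leukemia cells spent at least four passages adapting to each medium before use. They were seeded at 500 cells/well (NOMO1, SEM) or 1000 cells/well (P12-Ichikawa) in 5 μl in 1536-well plates and pin-dosed with library compounds in DMSO at 11 threefold steps from 47 μM down to 0.79 nM. After 48 h at 37°C, CellTiter-Glo One luminescence was read. Viability is reported as a percentage of the DMSO wells on each plate, with cell-free wells as background.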

[1] = HPLM + 10% dialyzed FBS, 0.000781 µM
[2] = HPLM + 10% dialyzed FBS, 0.00234 µM
[3] = HPLM + 10% dialyzed FBS, 0.00702 µM
[4] = HPLM + 10% dialyzed FBS, 0.0211 µM
[5] = HPLM + 10% dialyzed FBS, 0.0632 µM
[6] = HPLM + 10% dialyzed FBS, 0.19 µM
[7] = HPLM + 10% dialyzed FBS, 0.569 µM
[8] = HPLM + 10% dialyzed FBS, 1.71 µM
[9] = HPLM + 10% dialyzed FBS, 5.12 µM
[10] = HPLM + 10% dialyzed FBS, 15.4 µM
[11] = HPLM + 10% dialyzed FBS, 46.1 µM
[12] = RPMI 5 mM glucose + 10% FBS, 0.000781 µM
[13] = RPMI 5 mM glucose + 10% FBS, 0.00234 µM
[14] = RPMI 5 mM glucose + 10% FBS, 0.00702 µM
[15] = RPMI 5 mM glucose + 10% FBS, 0.0211 µM
[16] = RPMI 5 mM glucose + 10% FBS, 0.0632 µM
[17] = RPMI 5 mM glucose + 10% FBS, 0.19 µM
[18] = RPMI 5 mM glucose + 10% FBS, 0.569 µM
[19] = RPMI 5 mM glucose + 10% FBS, 1.71 µM
[20] = RPMI 5 mM glucose + 10% FBS, 5.12 µM
[21] = RPMI 5 mM glucose + 10% FBS, 15.4 µM
[22] = RPMI 5 mM glucose + 10% FBS, 46.1 µM
[23] = RPMI 5 mM glucose + 10% dialyzed FBS, 0.000781 µM
[24] = RPMI 5 mM glucose + 10% dialyzed FBS, 0.00234 µM
[25] = RPMI 5 mM glucose + 10% dialyzed FBS, 0.00702 µM
[26] = RPMI 5 mM glucose + 10% dialyzed FBS, 0.0211 µM
[27] = RPMI 5 mM glucose + 10% dialyzed FBS, 0.0632 µM
[28] = RPMI 5 mM glucose + 10% dialyzed FBS, 0.19 µM
[29] = RPMI 5 mM glucose + 10% dialyzed FBS, 0.569 µM
[30] = RPMI 5 mM glucose + 10% dialyzed FBS, 1.71 µM
[31] = RPMI 5 mM glucose + 10% dialyzed FBS, 5.12 µM
[32] = RPMI 5 mM glucose + 10% dialyzed FBS, 15.4 µM
[33] = RPMI 5 mM glucose + 10% dialyzed FBS, 46.1 µM

SMILES	cell viability [1] [%]	cell viability [2] [%]	cell viability [3] [%]	cell viability [4] [%]	cell viability [5] [%]	cell viability [6] [%]	cell viability [7] [%]	cell viability [8] [%]	cell viability [9] [%]	cell viability [10] [%]	cell viability [11] [%]	cell viability [12] [%]	cell viability [13] [%]	cell viability [14] [%]	cell viability [15] [%]	cell viability [16] [%]	cell viability [17] [%]	cell viability [18] [%]	cell viability [19] [%]	cell viability [20] [%]	cell viability [21] [%]	cell viability [22] [%]	cell viability [23] [%]	cell viability [24] [%]	cell viability [25] [%]	cell viability [26] [%]	cell viability [27] [%]	cell viability [28] [%]	cell viability [29] [%]	cell viability [30] [%]	cell viability [31] [%]	cell viability [32] [%]	cell viability [33] [%]
C[C@H](NC(=O)C(=O)Nc1ccccc1C(C)(C)C)C(=O)N[C@@H](CC(=O)O)C(=O)COc1c(F)c(F)cc(F)c1F	107	120	122	130	125	124	130	129	120	88.7	4.89	101	131	124	120	133	128	126	122	121	56.4	4.69	102	111	112	127	124	130	128	126	107	58.9	4.53
O=C(O)c1ccccc1C(=O)Nc1ccc(-c2ccccc2)cc1	123	118	128	124	128	125	123	119	122	114	108	–	–	–	–	–	–	–	–	–	–	–	119	123	124	124	138	123	119	124	117	130	113
COc1cc2ncnc(-n3nc(-c4ccccn4)nc3N)c2cc1OC	93.6	97.9	102	99.7	95.9	103	105	104	88.5	96	0.508	89.2	100	98.6	101	98	105	107	102	78	82.7	0.293	83.8	92.6	90	81.6	93.2	107	96.2	101	82.6	82.9	0.35
CC[C@H]1OC(=O)[C@H](C)[C@@H](O[C@H]2C[C@@](C)(OC)[C@@H](O)[C@H](C)O2)[C@H](C)[C@@H](O[C@@H]2O[C@@H](C)C[C@H](N(C)C)[C@H]2O)[C@](C)(O)C[C@@H](C)C(=O)[C@H](C)[C@@H](O)[C@]1(C)O	83.8	88.3	94.6	98.3	91.2	89.9	97.9	94.6	84	57.4	18.4	84.9	87	85.6	91.3	87.6	90	91.7	87.8	87.3	91.8	13.6	88.4	84.3	88.7	91.8	84.1	93.4	89.3	92.9	89.8	88.4	28
NC(=O)c1ccc(-c2nc(-c3ccc4c(c3)OCCO4)c(-c3ccccn3)[nH]2)cc1	120	125	125	118	122	119	124	122	117	117	111	122	126	115	129	117	115	118	131	116	114	110	121	114	120	126	126	121	121	110	127	117	106
COC[C@H](NC(=O)c1cnc(C)s1)C(=O)N[C@@H](COC)C(=O)N[C@@H](Cc1ccccc1)C(=O)[C@@]1(C)CO1	96.6	99.8	98.3	95	105	69.8	4.41	3.23	1.91	1.12	2.28	89	98.2	99.8	96.3	89.8	78.5	3.57	2.76	1.79	1.04	1.83	90.8	93.5	94.3	95.7	87.4	58.1	3.41	2.83	1.67	0.842	1.82
CCNC(=O)C[C@@H]1\N=C(C2=CC=C(Cl)C=C2)/C3=C(C=CC(=C3)OC)[N]4C(=NN=C14)C	106	115	106	114	105	103	92.1	83.5	78.2	50.1	17	114	111	127	106	105	111	101	84.7	76	56.2	37.8	115	118	115	117	106	106	95.7	84	75.8	60.4	35.9
CC1SC/2=C(C(O)=O)/C(=O)C3=CC(=C(C=C3N12)N4CCN(CC4)C\C5=C(C)\OC(=O)O5)F (stereo unspecified)	134	122	121	124	125	123	119	117	113	112	102	–	–	–	–	–	–	–	–	–	–	–	–	–	–	–	–	–	–	–	–	–	–
